Results published in US20120165553A1, “IMMUNOSTIMULANT” (RIKEN, priority 2010, published 2012).

Legend:
[1] = tested on: mouse spleen cells (T cells and B cells); assay: spleen cell proliferation caused by antigen stimulation (BrdU incorporation ELISA); assay type: cell-based; details: BL 10 nM; antigen 10 µg/mL of ovalbumin; cultured for 3 days; spleen cells of ovalbumin/aluminum hydroxide immunised BALB/c mouse; FIG. 1
Method: The effect of BL on the spleen cell proliferation caused by an antigen stimulation was examined.
A mixed solution (0.2 mL) of […] of ovalbumin (Sigma-Aldrich Corporation) and 4 mg of aluminum hydroxide (Thermo Scientific Pierce Protein Research Products) was intraperitoneally administered to a BALB/c mouse (female, 8 to 12 weeks old) and the spleen was collected 2 weeks later. Cells were isolated from the spleen and cultured in RPMI-1640 medium containing 10% fetal bovine serum (Cansera International Inc.), 5×10^−5M β-mercaptoethanol (Wako Pure Chemical Industries, Ltd.), 20 U/mL penicillin (Meiji Seika Kaisha, Limited) and 100 μg/mL streptomycin (Meiji Seika Kaisha, Limited) at 37° C. under the presence of 5% CO2. Cells to which BL (Brassino Co., Ltd.) was added in a concentration of 10 nM and cells to which BL was not added were respectively stimulated by an antigen ([…] of ovalbumin), cultured for 3 days and measured for the incorporated BrdU in the detection of proliferating spleen cells using a cell proliferation ELISA BrdU colorimetric kit (Roche Applied Science).

BALB/c mouse = assay: antigen (ovalbumin) specific antibody (IgG) production in mouse, serum ELISA; assay type: in vivo; details: BL 0.2, 1 and 5 mg/Kg of body weight intraperitoneally every other day; serum 2 weeks later; absorbance at 450 nm; FIG. 2
Method: A mixed solution (0.2 mL) of […] of ovalbumin (Sigma-Aldrich Corporation) and 4 mg of aluminum hydroxide (Thermo Scientific Pierce Protein Research Products) was intraperitoneally administered to a BALB/c mouse (female, 8 to 12 weeks old) and BL dissolved in 0.2 mL PBS (0, 0.2, 1 and 5 mg/Kg of body weight) was intraperitoneally administered every other day. The serum was isolated 2 weeks later and measured for the production of immunoglobulin (IgG) specific to the antigen (ovalbumin) using ELISA. ELISA was carried out using a biotinylated anti-mouse IgG antibody (Southern Biotechnology Associates Inc.) as the secondary antibody, streptavidin-HRP (Prozyme, Inc.) and a TMB Microwell Peroxidase Substrate (Kirkegaard & Perry Laboratories, Inc.) as the colorimetric substrate, and the absorbance at 450 nm was measured.

macrophages [2] = assay: cytokine mRNA expression in macrophages stimulated with R848 (real time PCR); assay type: cell-based, mouse; details: 10 nM BL for 15 minutes, then R848 stimulation, RNA 1 hour later, relative to HPRT mRNA
Method: 3 mL of 3% thioglycolate medium (Difco Laboratories) was intraperitoneally administered to a BALB/c mouse (female, 8 to 12 weeks age), peritoneal cells were collected 3 days later and cultured in RPMI-1640 medium containing 10% fetal bovine serum (Cansera International Inc.), 5×10^−5M β-mercaptoethanol (Wako Pure Chemical Industries, Ltd.), 20 U/mL penicillin (Meiji Seika Kaisha, Limited) and 100 μg/mL streptomycin (Meiji Seika Kaisha, Limited) at 37° C. under the presence of 5% CO2. After culturing 1×10^6/mL of the peritoneal cells for 3 hours in a 6-well plate (2 mL/well), non-adherent cells were removed and adherent cells were tested as the macrophages. The macrophages were cultured for 15 minutes in the presence or absence of 10 nM BL, subsequently stimulated with R848 (InvivoGen) or LPS (Sigma-Aldrich Corporation) 100 ng/mL, and the RNA was collected 1 hour later using Rneasy Mini Kit (QIAGEN K. K.). Using a Primescript RT reagent kit (TAKARA BIO INC.), cDNA was synthesized from […] of the isolated RNA in accordance with the attached protocol and the real time PCR was carried out using Thermal Cycler Dice Real Time System II (TAKARA BIO INC.) to examine the changes of cytokine (IFN-α, IFN-β, IL-12 subunit p35, IL-12 subunit p40, TNF-α) mRNA expression. […]

macrophages [3] = assay: cytokine mRNA expression in macrophages stimulated with LPS (real time PCR); assay type: cell-based, mouse; details: 10 nM BL for 15 minutes, then LPS stimulation, RNA 1 hour later, relative to HPRT mRNA
Method: 3 mL of 3% thioglycolate medium (Difco Laboratories) was intraperitoneally administered to a BALB/c mouse (female, 8 to 12 weeks age), peritoneal cells were collected 3 days later and cultured in RPMI-1640 medium containing 10% fetal bovine serum (Cansera International Inc.), 5×10^−5M β-mercaptoethanol (Wako Pure Chemical Industries, Ltd.), 20 U/mL penicillin (Meiji Seika Kaisha, Limited) and 100 μg/mL streptomycin (Meiji Seika Kaisha, Limited) at 37° C. under the presence of 5% CO2. After culturing 1×10^6/mL of the peritoneal cells for 3 hours in a 6-well plate (2 mL/well), non-adherent cells were removed and adherent cells were tested as the macrophages. The macrophages were cultured for 15 minutes in the presence or absence of 10 nM BL, subsequently stimulated with R848 (InvivoGen) or LPS (Sigma-Aldrich Corporation) 100 ng/mL, and the RNA was collected 1 hour later using Rneasy Mini Kit (QIAGEN K. K.). Using a Primescript RT reagent kit (TAKARA BIO INC.), cDNA was synthesized from […] of the isolated RNA in accordance with the attached protocol and the real time PCR was carried out using Thermal Cycler Dice Real Time System II (TAKARA BIO INC.) to examine the changes of cytokine (IFN-α, IFN-β, IL-12 subunit p35, IL-12 subunit p40, TNF-α) mRNA expression.
The mRNA amounts are shown for IFN-α in FIG. 3, IFN-β in FIG. 4, IL-12 subunit p35 in FIG. 5, IL-12 subunit p40 in FIG. 6 and TNF-α in FIG. 7. The mRNA amount in each Figure is indicated as the relative amount to the mRNA amount of HPRT, which is the housekeeping gene.

## CC(C)[C@H](C)[C@@H](O)[C@H](O)[C@@H](C)[C@H]1CC[C@H]2[C@@H]3COC(=O)[C@H]4C[C@H](O)[C@H](O)C[C@]4(C)[C@H]3CC[C@]12C [BL, Brassinolide]
[1]
  spleen cell proliferation induced by the antigen stimulation (incorporated BrdU): significantly promoted
BALB/c mouse
  antigen specific antibody (IgG) production induced by ovalbumin and aluminum hydroxide: significantly promoted
Macrophages [2]; FIG. 3
  IFN-α mRNA expression induction: enhancing
Macrophages [2]; FIG. 4
  IFN-β mRNA expression induction: enhancing
Macrophages [3]; FIG. 5
  IL-12 p35 mRNA expression induction: enhancing
Macrophages [3]; FIG. 6
  IL-12 p40 mRNA expression induction: enhancing
Macrophages [3]; FIG. 7
  TNF-α mRNA expression induction: enhancing
